The term IC50 denotes the point on the concentration scale where inhibition reaches its midpoint.

Molecules are shown by their SMILES. Structures can show the parent of a compound that is named as a salt.

The target in assay [1] is Recombinant human JAK3 catalytic domain (amino acids 781-1124) (Homo sapiens, UniProt P52333). Nature of the assay: JAK3 inhibition assay. The class given is biochemical. On the procedure: After 45 min at 30° C., reactions are stopped by adding 25 μL/well of 150 mM phosphoric acid. […] Plates are washed 6 times with 300 μL per well of a 75 mM phosphoric acid solution and the bottom of the plates is sealed. […] Kinase activity is calculated by subtracting counts per min (cpm) obtained in the presence of a positive control inhibitor (10 μM staurosporine) from cpm obtained in the presence of vehicle. The ability of a test compound to inhibit this activity (or percentage inhibition) is determined as: […]
Recombinant human JAK3 catalytic domain (amino acids 781-1124), sequence (P52333 781-1124): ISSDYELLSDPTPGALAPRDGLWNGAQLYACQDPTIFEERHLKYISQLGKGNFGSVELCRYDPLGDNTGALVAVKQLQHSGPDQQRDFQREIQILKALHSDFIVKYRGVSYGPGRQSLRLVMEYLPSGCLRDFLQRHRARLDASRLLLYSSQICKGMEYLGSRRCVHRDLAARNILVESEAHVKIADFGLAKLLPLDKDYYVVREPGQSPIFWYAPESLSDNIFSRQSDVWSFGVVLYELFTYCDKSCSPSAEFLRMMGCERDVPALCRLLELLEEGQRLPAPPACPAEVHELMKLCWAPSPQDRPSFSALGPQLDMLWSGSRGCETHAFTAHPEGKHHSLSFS
cpm test compound=cpm determined for sample with test compound present cpm control=cpm determined for sample with positive control inhibitor cpm vehicle=cpm determined in the presence of vehicle
Dose dilution series were prepared for the compounds enabling the testing of dose-response effects in the JAK3 assay and the calculation of the IC50 for each compound. Each compound is routinely tested at concentration of 20 μM followed by a 1/5 serial dilution, 10 points in a final concentration of 1% DMSO.

Assay [2] has as its target T1, Recombinant human JAK1 (catalytic domain, amino acids 866-1154) (Homo sapiens, UniProt P23458).
T1 construct: catalytic domain, amino acids 866-1154
The assay is described as follows: JAK1 inhibition assay. The class given is biochemical. The following applies: read-out: JAK1 potency IC50. On the procedure: After 60 min at room temperature, reactions are stopped by adding 20 μL/well of detection mixture (1× detection buffer (Perkin Elmer, catalog number CR97-100), 0.5 nM Europium-anti-phosphotyrosine (PT66) (Perkin Elmer, catalog number AD0068/AD0069), 10 mM EDTA). […] Kinase activity is calculated by subtracting the ratio obtained in the presence of a positive control inhibitor (1 μM staurosporine) from the ratio obtained in the presence of vehicle. The ability of a test compound to inhibit this activity (or percentage inhibition) is determined as:
(§1) [formula] wherein Fluorescent ratio test compound=ratio RFU665/RFU615*1000 determined for sample with test compound present Fluorescent ratio control=ratio RFU665/RFU615*1000 determined for sample with positive control inhibitor Fluorescent ratio vehicle=ratio RFU665/RFU615*1000 determined in the presence of vehicle
Dose dilution series were prepared for the compounds enabling the testing of dose-response effects in the JAK1 assay and the calculation of the IC50 for the compound. Each compound is routinely tested at concentration of 20 μM followed by a 1/5 serial dilution, 10 points in a final concentration of 1% DMSO. […] The data are expressed as the average IC50 from the assays.

For assay [3], the system named is IFNα activation of STAT1 in PBMC. The assay is described as follows: IFNα activation of STAT1 in PBMC. The assay is classed as cell-based. The conditions noted are these: Homo sapiens; IFNα activation of STAT1 in PBMC; average IC50; read-out: IFNα signaling inhibitory potency IC50. The method, boiled down:
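Human PBMC, with red cells lysed by NH4Cl, were pre-treated with compound for 30 min at 37 °C and 5% CO2. They were then stimulated for 30 min with recombinant human IFNα at 5 ng/mL final.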

In assay [4] the target is T2, Recombinant human JAK2 (catalytic domain, amino acids 808-1132) (Homo sapiens, UniProt O60674).
T2 construct: catalytic domain, amino acids 808-1132
T2 sequence (O60674 808-1132): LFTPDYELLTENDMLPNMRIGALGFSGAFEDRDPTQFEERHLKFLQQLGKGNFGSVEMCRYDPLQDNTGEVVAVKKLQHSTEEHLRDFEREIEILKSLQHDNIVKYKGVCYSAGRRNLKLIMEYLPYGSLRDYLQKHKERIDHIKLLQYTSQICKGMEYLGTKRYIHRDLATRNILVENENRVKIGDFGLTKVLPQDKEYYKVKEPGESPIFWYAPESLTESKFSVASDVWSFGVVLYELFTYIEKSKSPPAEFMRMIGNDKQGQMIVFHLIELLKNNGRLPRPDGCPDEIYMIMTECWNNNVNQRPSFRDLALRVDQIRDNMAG
The assay is described as follows: JAK2 inhibition assay. Also: 0.7 µM ATP. The assay is classed as biochemical. The conditions noted are these: read-out: JAK2 potency IC50. On the procedure: After 60 min at room temperature, reactions are stopped by adding 20 μL/well of detection mixture (1× detection buffer (Perkin Elmer, catalog number CR97-100) with 0.5 nM Europium-anti-phosphotyrosine (PT66) (Perkin Elmer, catalog number AD0068/AD0069) and 10 mM EDTA). […] Kinase activity is calculated by subtracting the ratio obtained in the presence of a positive control inhibitor (1 μM staurosporine) from the ratio obtained in the presence of vehicle. The ability of a test compound to inhibit this activity (or percentage inhibition) is determined as:
as §1
Dose dilution series are prepared for compound enabling the testing of dose-response effects in the JAK2 assay and the calculation of the IC50 for the compound. Each compound is routinely tested at concentration of 20 μM followed by a 1/5 serial dilution, 10 points in a final concentration of 1% DMSO. […] The data are expressed as the average IC50 from the assays.

The test system of assay [5] is IL-12 activation of STAT4 in NK-92 cells. Nature of the assay: IL-12 activation of STAT4 in NK-92 cells using AphaLISA SureFire technology. The assay is classed as cell-based. The conditions noted are these: Homo sapiens, NK92; IL-12 activation of STAT4 in NK-92 cells, AlphaLISA SureFire; average IC50; read-out: IL12 pSTAT4 IC50. The method, boiled down: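 NK-92 cells, starved of rhIL-2 overnight, were stimulated with rhIL-12 for 30 min at 37 °C with test compounds, then lysed. Phospho-STAT4 (Tyr693) was read by AlphaLISA SureFire. Percent inhibition versus the vehicle-plus-trigger signal was fitted by sigmoidal nonlinear regression to give IC50, averaged over experiments.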
(In general: Alpha assays give light when donor and acceptor beads are brought close together.)

Assay [6] concerns the target T3, Recombinant human TYK2 catalytic domain (amino acids 871-1187) (Homo sapiens, UniProt P29597).
T3 construct: catalytic domain (amino acids 871-1187)
T3 sequence (P29597 871-1187): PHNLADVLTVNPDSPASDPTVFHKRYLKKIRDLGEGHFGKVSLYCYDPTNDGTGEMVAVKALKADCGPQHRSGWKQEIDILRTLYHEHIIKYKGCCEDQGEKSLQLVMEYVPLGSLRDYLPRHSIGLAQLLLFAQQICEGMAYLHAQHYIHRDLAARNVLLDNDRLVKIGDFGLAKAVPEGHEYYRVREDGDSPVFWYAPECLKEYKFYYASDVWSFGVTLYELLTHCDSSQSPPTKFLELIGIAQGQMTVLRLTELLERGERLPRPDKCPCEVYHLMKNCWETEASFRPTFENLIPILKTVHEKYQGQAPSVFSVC
Nature of the assay: TYK2 radioactive assay polyGT substrate. Also: 0.1 µM ATP. The assay is classed as biochemical. The method, boiled down:
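Reaction at 30° C. for 120 min, ended with 150 mM phosphoric acid, washed, counted; percent inhibition scaled between vehicle and 10 μM staurosporine cpm.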

T1 sequence (P23458 866-1154): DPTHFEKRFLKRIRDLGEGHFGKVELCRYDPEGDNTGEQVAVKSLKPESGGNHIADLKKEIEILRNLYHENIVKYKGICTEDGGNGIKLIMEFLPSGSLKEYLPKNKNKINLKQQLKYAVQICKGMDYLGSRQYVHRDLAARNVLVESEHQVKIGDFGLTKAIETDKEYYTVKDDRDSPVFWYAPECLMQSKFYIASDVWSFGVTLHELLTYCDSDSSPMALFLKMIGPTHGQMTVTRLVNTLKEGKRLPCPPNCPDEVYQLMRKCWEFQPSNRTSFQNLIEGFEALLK

Turning to `Cc1cc(C#N)ncc1Oc1cc(Nc2cnn(C)c2)c2ncn(C)c2n1` [Compound 61, 4-methyl-5-[3-methyl-7-[(1-methylpyrazol-4-yl)amino]imidazo[4,5-b]pyridin-5-yl]oxy-pyridine-2-carbonitrile], the IC50 is 1110 nM in assay [1]; 60.3 nM in assay [2]; 112 nM in assay [3]; 58.4 nM in assay [4]; 221 nM in assay [5]; 10.3 nM in assay [6].

As for `CCNC(c1ccc(Nc2cc(Oc3cnc(C#N)cc3C)nc3c2ncn3C)nc1)C(F)(F)F` (stereo not drawn) [Compound 80, 5-[7-[[5-[1-(ethylamino)-2,2,2-trifluoroethyl]pyridin-2-yl]amino]-3-methylimidazo[4,5-b]pyridin-5-yl]oxy-4-methylpyridine-2-carbonitrile], the IC50 in assay [1] worked out at 392 nM; in assay [2], 19.9 nM; in assay [3], 93 nM; in assay [4] it was 5.2 nM; in assay [5] it was 83 nM; in assay [6], 2.22 nM.

On to `Cc1cc(C#N)ncc1Oc1cc(Nc2cc(NCCC(C)(C)O)ncn2)c2ncn(C)c2n1` [Compound 33, 5-{7-[6-(3-Hydroxy-3-methyl-butylamino)-pyrimidin-4-ylamino]-3-methyl-3H-imidazo[4,5-b]pyridin-5-yloxy}-4-methyl-pyridine-2-carbonitrile], for which the IC50 in assay [1] came to 503 nM; in assay [2], 67.6 nM; in assay [3], 72 nM; in assay [4] it was 23.1 nM; in assay [5], 129 nM; in assay [6], 2.93 nM.

Regarding `CC(C)[C@@H](Nc1cc(Nc2cc(N)ncn2)c2ncn(C)c2n1)C(F)(F)F` [Compound 98, N7-(6-aminopyrimidin-4-yl)-3-methyl-N5-[(1R)-2-methyl-1-(trifluoromethyl)propyl]imidazo[4,5-b]pyridine-5,7-diamine], the IC50 was 48.2 nM in assay [1]; 28.2 nM in assay [2]; 38 nM in assay [3]; 6.31 nM in assay [4]; 18.9 nM in assay [5]; 3.04 nM in assay [6].

On to `Cn1cnc2c(Nc3ccc(S(C)(=O)=O)cn3)cc(OC(C3CC3)C(F)(F)F)nc21` (stereo not drawn) [Compound 22, 5-(1-cyclopropyl-2,2,2-trifluoro-ethoxy)-3-methyl-N-(5-methylsulfonyl-2-pyridyl)imidazo[4,5-b]pyridin-7-amine], for which the IC50 in assay [1] amounted to 97.9 nM; in assay [2] it was 23 nM; in assay [3], 50 nM; in assay [4] it was 3.35 nM; in assay [5] it was 22 nM; in assay [6] it was 3.07 nM.

As for `Cc1cc(C#N)ncc1Oc1cc(Nc2ccc(N3CCOC[C@@H]3C)cn2)c2ncn(C)c2n1` [Compound 85, 4-methyl-5-[3-methyl-7-[[5-[(3S)-3-methylmorpholin-4-yl]pyridin-2-yl]amino]imidazo[4,5-b]pyridin-5-yl]oxypyridine-2-carbonitrile], the IC50 in assay [1] worked out at 479 nM; in assay [2] it was 30.4 nM; in assay [3] it was 115 nM; in assay [4] it was 10.5 nM; in assay [5], 154 nM; in assay [6], 4.81 nM.

On to `Cc1cc(C#N)ncc1Oc1cc(Nc2ccc(CN(C)C)cn2)c2ncn(C)c2n1` [Compound 81, 5-[7-[[5-[(dimethylamino)methyl]pyridin-2-yl]amino]-3-methylimidazo[4,5-b]pyridin-5-yl]oxy-4-methylpyridine-2-carbonitrile formate salt], for which the IC50 was determined as 386 nM in assay [1]; 150 nM in assay [2]; 56 nM in assay [3]; 10.4 nM in assay [4]; 224 nM in assay [5]; 6.83 nM in assay [6].

`Cc1cc(C#N)ncc1Oc1cc(Nc2ccc(C(=O)N3CC(C(C)(C)O)C3)nn2)c2ncn(C)c2n1` [Compound 111, 5-[7-[[6-[3-(1-hydroxy-1-methyl-ethyl)azetidine-1-carbonyl]pyridazin-3-yl]amino]-3-methyl-imidazo[4,5-b]pyridin-5-yl]oxy-4-methyl-pyridine-2-carbonitrile]: the IC50 in assay [1] is 1050 nM; in assay [2], 310 nM; in assay [3], 123 nM; in assay [4], 29.7 nM; in assay [6], 5.53 nM.

Take `Cc1cc(C#N)ncc1N(CC(C)O)c1cc(Nc2cc(N)ncn2)c2ncn(C)c2n1` (stereo not drawn) [Cpd 187, 5-[[7-[(6-aminopyrimidin-4-yl)amino]-3-methyl-imidazo[4,5-b]pyridin-5-yl]-(2-hydroxypropyl)amino]-4-methyl-pyridine-2-carbonitrile]: the concentration for half-maximal inhibition (IC50) in assay [1] turned out to be 660 nM; in assay [2], 127 nM; in assay [4], 42.3 nM; in assay [6], 6.54 nM.

As to `Cc1cc(C#N)ncc1Oc1cc(Nc2ccc(N3CCC(N(C)C)CC3)cn2)c2ncn(C)c2n1` [Compound 181, 5-[7-[[5-[4-(dimethylamino)-1-piperidyl]-2-pyridyl]amino]-3-methyl-imidazo[4,5-b]pyridin-5-yl]oxy-4-methyl-pyridine-2-carbonitrile], the IC50 in assay [1] was 396 nM; in assay [2], 151 nM; in assay [4], 36.9 nM; in assay [6], 7.08 nM.

With `COC(C)CCNc1cc(Nc2cc(Oc3cnc(C#N)cc3C)nc3c2ncn3C)ncn1` (stereo not drawn) [Compound 37, 5-{7-[6-(3-Methoxy-butylamino)-pyrimidin-4-ylamino]-3-methyl-3H-imidazo[4,5-b]pyridin-5-yloxy}-4-methyl-pyridine-2-carbonitrile], the IC50 in assay [1] stood at 439 nM; in assay [2], 84.3 nM; in assay [4], 20.1 nM; in assay [6] it was 3.62 nM.

With `COCCCNC(=O)c1ccc(Nc2cc(Oc3cnc(C#N)cc3C)nc3c2ncn3C)nc1` [Compound 100, 6-[[5-[(6-cyano-4-methyl-3-pyridyl)oxy]-3-methyl-imidazo[4,5-b]pyridin-7-yl]amino]-N-(3-methoxypropyl)pyridine-3-carboxamide], the IC50 in assay [1] is 912 nM; in assay [2], 63.5 nM; in assay [4], 39.4 nM; in assay [6] it was 8.06 nM.

The values above are taken from patent US11564923B2, “Compounds and pharmaceutical compositions thereof for the treatment of inflammatory disorders” (Galapagos NV, priority 2017, dated 2023).
